Test results as given in ChEMBL document CHEMBL3997825, “Discovery of 2-oxopiperazine dengue inhibitors by scaffold morphing of a phenotypic high-throughput screening hit” (Bioorg Med Chem Lett, 2017).
Converted amounts (≈) assume the structure as drawn.

Legend:
dengue virus type 3 [1] = test: Antiviral activity against DENV3 MY05-34640 infected in human A549 cells assessed as decrease in envelope protein production after 48 hrs by immunodetection method; type: functional, cell-based; conditions: MY05-34640, A549, 48 h
[2] = Cytotoxicity against human HepG2 cells; type: cell-based
dengue virus type 4 [3] = test: Antiviral activity against DENV4 MY01-22713 infected in human A549 cells assessed as decrease in envelope protein production after 48 hrs by immunodetection method; type: functional, cell-based; conditions: MY01-22713, A549, 48 h
dengue virus type 2 [4] = test: Antiviral activity against DENV2 MY97-10340 infected in human A549 cells assessed as decrease in envelope protein production after 48 hrs by immunodetection method; type: functional, cell-based; conditions: MY97-10340, A549, 48 h
dengue virus type 1 [5] = test: Antiviral activity against DENV1 MY97-10245 infected in human A549 cells assessed as decrease in envelope protein production after 48 hrs by immunodetection method; type: functional, cell-based; conditions: MY97-10245, A549, 48 h
[6] = Intrinsic clearance in human liver microsomes; type: ADME, microsome; conditions: read-out: CLH
[7] = Lipophilicity, log D of the compound at pH 7.4; type: physicochemical; conditions: buffer
[8] = Solubility of the compound at pH 6.8; type: physicochemical; conditions: buffer
dengue virus type 3 [9] = test: Antiviral activity against DENV3 H87 infected in BHK21 cells assessed as reduction in viral titer after 72 hrs by plaque assay; type: functional, cell-based; conditions: H87, BHK-21, 72 h
dengue virus type 1 [10] = test: Antiviral activity against DENV1 West Pacific infected in BHK21 cells assessed as reduction in viral titer after 48 hrs by plaque assay; type: functional, cell-based; conditions: BHK-21, 48 h
dengue virus type 2 [11] = test: Antiviral activity against DENV2 New Guinea C infected in human A549 cells assessed as reduction in viral titer after 48 hrs by plaque assay; type: functional, cell-based; conditions: Thailand/NGS-C/1944, A549, 48 h
dengue virus type 2 [12] = test: Antiviral activity against DENV2 TSVO1 infected in C6/36 cells assessed as reduction in viral titer after 72 hrs by plaque assay; type: functional, cell-based; conditions: TSVO1, C6/36, 72 h
dengue virus type 4 [13] = test: Antiviral activity against DENV4 H241 infected in BHK21 cells assessed as reduction in viral titer after 72 hrs by plaque assay; type: functional, cell-based; conditions: H241, BHK-21, 72 h

SMILES	EC50 (dengue virus type 3 [1])	CC50 [2]	EC50 (dengue virus type 4 [3])	EC50 (dengue virus type 2 [4])	EC50 (dengue virus type 1 [5])	microsomal CLint [6]	logD [7]	solubility [8]	EC50 (dengue virus type 3 [9])	EC50 (dengue virus type 1 [10])	EC50 (dengue virus type 2 [11])	EC50 (dengue virus type 2 [12])	EC50 (dengue virus type 4 [13])
O=C(NC1CCCC1)C1CN(c2ccc(C(F)(F)F)cc2)CC(=O)N1c1ccc2ccsc2c1 (stereo not drawn)	80 nM	10000 nM	100 nM	300 nM	200 nM								
CSc1cccc(N2C(=O)CN(c3cc(C(F)(F)F)ccc3C)CC2C(=O)NC2CCCC2)c1 (stereo not drawn)	6500 nM	10000 nM	5800 nM	8000 nM	6100 nM								
CSc1cccc(N2C(=O)c3ccc(-c4ccco4)n3CC2(C)C(=O)NC2CCCC2)c1 (stereo not drawn)	90 nM	> 50000 nM	420 nM	500 nM	320 nM								
O=C(NC1CCCC1)C1CN(c2ccccc2)CC(=O)N1c1ccc2ccsc2c1 (stereo not drawn)	170 nM	> 50000 nM	900 nM	1500 nM	2400 nM								
O=C(NC1CCCC1)[C@@H]1CN(c2ccc(C(F)(F)F)cc2)CC(=O)N1c1ccc2ccsc2c1	30 nM	20000 nM	30 nM	100 nM	70 nM	59 µL/min/mg	> 4.5	< 4 µM					
CSc1cccc(N2C(=O)c3cc4ccc(C(F)(F)F)cc4n3C[C@@]2(C)C(=O)NC2CCCC2)c1	10 nM	20000 nM	50 nM	90 nM	40 nM	> 735 µL/min/mg	> 4.5	< 4 µM					
O=C(NC1CCCC1)[C@H]1CN(c2ccc(C(F)(F)F)cc2)CC(=O)N1c1ccc2ccsc2c1	2600 nM	10000 nM	2600 nM	5700 nM	6900 nM								
CSc1cccc(N(CC(=O)NC2CCCC2)C(=O)c2cc3ccc(C(F)(F)F)cc3n2C)c1	2300 nM	6300 nM	1500 nM	3000 nM	3100 nM								
O=C(NC1CCC1)C1CN(c2ccccc2)CC(=O)N1c1ccc2ccsc2c1 (stereo not drawn)	50 nM	> 50000 nM	200 nM	1000 nM	1800 nM								
NC(=O)c1cccc(NC(=O)C2CN(c3ccccc3)CC(=O)N2c2ccc3ccsc3c2)c1 (stereo not drawn)	130 nM	> 50000 nM	1900 nM	1500 nM	2000 nM								
O=C(NC1CCCC1)C1CN(c2cccc(C(F)(F)F)c2)CC(=O)N1c1cccc(OC(F)(F)F)c1 (stereo not drawn)	400 nM	8000 nM	700 nM	1700 nM	1100 nM								
N#Cc1cccc(NC(=O)C2CN(c3ccccc3)CC(=O)N2c2ccc3ccsc3c2)c1 (stereo not drawn)	90 nM	> 50000 nM	1200 nM	2000 nM	2800 nM								
CSc1cccc(N2C(=O)CN(c3ccccc3)CC2(C)C(=O)NC2CCCC2)c1 (stereo not drawn)	1300 nM	> 50000 nM	2500 nM	11000 nM	4000 nM								
O=C(NCC1CC1)C1CN(c2ccccc2)CC(=O)N1c1ccc2ccsc2c1 (stereo not drawn)	200 nM	> 50000 nM	600 nM	2200 nM	6200 nM								
CSc1cccc(N(C(=O)c2cc3ccc(C(F)(F)F)cc3[nH]2)[C@H](C)C(=O)NC2CCCC2)c1	2500 nM	15000 nM	2600 nM	3600 nM	5300 nM								
COc1cccc(N2CC(=O)N(c3cccc(SC)c3)C(C(=O)NC3CCCC3)C2)c1 (stereo not drawn)	1600 nM	> 50000 nM	2400 nM	5400 nM	2900 nM								
CSc1cccc(N2C(=O)CN(c3cncc(C(F)(F)F)c3)CC2C(=O)NC2CCCC2)c1 (stereo not drawn)	13000 nM	> 50000 nM	28000 nM	> 50000 nM	> 50000 nM								

SMILES	EC50 (dengue virus type 3 [1])	CC50 [2]	EC50 (dengue virus type 4 [3])	EC50 (dengue virus type 2 [4])	EC50 (dengue virus type 1 [5])	microsomal CLint [6]	logD [7]	solubility [8]	EC50 (dengue virus type 3 [9])	EC50 (dengue virus type 1 [10])	EC50 (dengue virus type 2 [11])	EC50 (dengue virus type 2 [12])	EC50 (dengue virus type 4 [13])
CSc1cccc(NC(=O)c2cc3ccc(C(F)(F)F)cc3n2CC(C)C(=O)NC2CCCC2)c1 (stereo not drawn)	3900 nM	7100 nM	2000 nM	10000 nM	5100 nM								
CSc1cccc(N2C(=O)CN(c3cccc(C(F)(F)F)c3)CC2C(=O)NC2CCCC2)c1 (stereo not drawn)	300 nM	20000 nM	600 nM	1000 nM	700 nM			4 µM (≈ 1.91 µg/mL)					
CSc1cncc(N2C(=O)CN(c3cccc(C(F)(F)F)c3)CC2C(=O)NC2CCCC2)c1 (stereo not drawn)	200 nM	26000 nM	600 nM	1200 nM	400 nM			40 µM (≈ 19.1 µg/mL)					
CSc1cccc(N2C(=O)c3cc4ccc(C(F)(F)F)cc4n3CC2(C)C(=O)NC2CCCC2)c1 (stereo not drawn)	50 nM	> 50000 nM	170 nM	200 nM	80 nM								
CSc1cccc(N2C(=O)c3cc4ccc(C(F)(F)F)cc4n3C[C@]2(C)C(=O)NC2CCCC2)c1	600 nM	20000 nM	1500 nM	5100 nM	5500 nM								
CC(F)(F)c1cccc(N2C(=O)CN(c3cccc(C(F)(F)F)c3)CC2C(=O)NC2CCCC2)c1 (stereo not drawn)	400 nM	9000 nM	800 nM	2200 nM	1900 nM								
O=C(NC1CCCC1)C1CN(c2ccc(C(F)(F)F)cc2)CC(=O)N1c1cnc2ccsc2c1 (stereo not drawn)	300 nM	30000 nM	400 nM	900 nM	500 nM								
O=C(Nc1cccnc1)C1CN(c2ccccc2)CC(=O)N1c1ccc2ccsc2c1 (stereo not drawn)	500 nM	> 50000 nM	1700 nM	2700 nM	5600 nM								
CSc1cccc(N2C(=O)CN(c3ccc(C(F)(F)F)cc3)CC2C(=O)NC2CCCC2)c1 (stereo not drawn)	200 nM	10000 nM	200 nM	600 nM	500 nM								
COc1ccc(-c2csc(NC(=O)c3cc(C(C)(C)C)cc(C(C)(C)C)c3)n2)cc1									1000 to 4100 nM	1000 to 4100 nM	1000 to 4100 nM	1000 to 4100 nM	1000 to 4100 nM
O=C(NC1CCCC1)C1CN(c2ccc(C(F)(F)F)cc2)CC(=O)N1c1ccc2ccoc2c1 (stereo not drawn)	400 nM	20000 nM	500 nM	1000 nM	800 nM								
CSc1cccc(N2C(=O)CN(c3ccccc3)CC2C(=O)NC2CCCC2)c1 (stereo not drawn)	800 nM	> 50000 nM	2000 nM	11000 nM	2000 nM								
CSc1cccc(N(C(=O)c2cc3ccc(C(F)(F)F)cc3[nH]2)[C@@H](C)C(=O)NC2CCCC2)c1	2000 nM	7100 nM	1500 nM	1700 nM	2200 nM								
CC(=O)c1cccc(N2C(=O)CN(c3cccc(C(F)(F)F)c3)CC2C(=O)NC2CCCC2)c1 (stereo not drawn)	2200 nM	40000 nM	6300 nM	10000 nM	7100 nM								
CSc1cccc(N2C(=O)CN(c3cccnc3)CC2C(=O)NC2CCCC2)c1 (stereo not drawn)	31000 nM	> 50000 nM	45000 nM	> 50000 nM	> 50000 nM								
CSc1cccc(N2C(=O)CN(c3cccc(C#N)c3)CC2C(=O)NC2CCCC2)c1 (stereo not drawn)	1700 nM	> 50000 nM	2500 nM	7400 nM	4100 nM								
